Results: US20220125746A1, “METHOD OF PREVENTING OR TREATING TREATMENT-INDUCED GASTROINTESTINAL INJURY” (priority 2019, published 2022)
Where a name gives a salt, the structure may show the parent alone.

Columns and labels:
C57BL/6J mice = assay: Survival and GI injury after three daily doses of CPT-11; assay type: in vivo, mouse
Source text: Immediately after sacrifice, about 10-cm portion of the jejunum was removed and carefully rinsed with ice-cold saline. The tissue was opened longitudinally and tacked to a foam board for fixation overnight in 10% formalin. Tissues were then rolled up into “swiss rolls” and embedded in paraffin. For tumor analysis, flank tumors were removed, measured, and cut into pieces for either formalin fixation or flash freezing in a dry ice/ethanol bath. Tissue sections (5 um) were deparaffinized and rehydrated through graded ethanols. Histological analysis was performed by hematoxylin and eosin (H&E) staining.
; CPT-11). […] . […] BH3-only proteins BIM and NOXA were not induced by CPT-11 or affected by Puma KO (FIG. 8F). […] . […] . Histological analysis confirmed lethal GI injury in WT and p53 KO mice on day 5, showing severe loss of crypts and shortening of villi, which was abrogated in Puma KO mice (FIG. 1F).

[1] = PUMAi distribution in intestinal mucosa and plasma (LC-MS/MS); assay type: in vivo, mouse; conditions: for PUMAi concentration in intestinal mucosa compared to -1.5 hours: 10 mg/kg i.p.
Method: Acetonitrile and water (all HPLC grade) were purchased from Fisher Scientific. Formic acid and trifluoroacetic acid was purchased from Sigma-Aldrich. Stock solutions of PUMAi and [D5]-PUMAi internal standard were prepared at 1 mg/mL in DMSO, diluted 10 times in acetonitrile, and then stored at −80° C. On the day of the assay, the solution was serially diluted (in 10-fold steps) in acetonitrile to obtain the lower calibration working solutions of 0.01 and 0.001 mg/mL. These calibration working solutions were diluted in mouse plasma (Lampire Biological Laboratories, Inc.) to produce the following analyte concentrations: 10, 30, 50, 100, 300, 500, 1000, 3000 ng/mL. For each calibration series, zero (containing 10 ng/mL of internal standard) and blank samples were also prepared from 50 μL of Lampire plasma. Quality control (QC) stock solutions were diluted in Lampire mouse plasma to produce the following QC samples: QC Low (QCL) 20 ng/mL; QC Mid (QCM) 200 ng/mL, and QC High (QCH) 2500 ng/mL.
To extract PUMAi, we added 10 μL of internal standard solution (1000 ng/mL [D5]-PUMAi in acetonitrile) to 50 μL of plasma sample in a micro centrifuge tube. […]
The mass spectrometer was operated in ESI positive mode using MRM detection. […] The mass transitions monitored were m/z 331>143 for PUMAi and 345>157 for the internal standard.
To assess recovery from plasma, we compared areas from control plasma spiked with 1000 ng/mL of PUMAi, prepared as described above, with the areas obtained with a neat solution of PUMAi in water. Intestinal mucosa was analyzed after dilution in control plasma to within the calibration range. […]
PUMAi {1-[4-(2-hydroxyethyl)-1-piperazinyl]-3-(2-naphthyloxy)-2-propanol dihydrochloride} was synthesized by ChemBridge, with a purity of 95% by HPLC-MS, and an internal isotopic standard PUMAih7 (D5, five internal hydrogens replaced by deuterium) was synthesized by Alsachim, with purity approaching 100% by HPLC-MS. […] Detailed methods on LC-MS/MS (liquid chromatography-tandem MS) quantitation of PUMAi are found in Supplementary Materials and Methods.

intestinal crypts = assay: CPT-11-induced intestinal crypt apoptosis in mice (TUNEL, active caspase-3)
Method: Puma+/+ (WT) and Puma−/− (Puma KO) mice (52) were generated in-house by heterozygote breeding. WT and Puma KO alleles were genotyped from genomic DNA isolated from tail snips, as described (52). p53−/− (p53 KO) mice were purchased from the Jackson Laboratory. […] All strains are in or have been backcrossed with the C57BL/6 background for more than 10 generations (F10). Mice were housed in microisolator cages in a room illuminated from 07:00 to 19:00 hours (12:12-hour light/dark cycle), with access to water and chow ad libitum.
Rehydrated sections were treated with 3% hydrogen peroxide (immunochemistry only), followed by antigen retrieval for 10 min in boiling 0.1 M citrate buffer (pH 6.0) with 1 mM EDTA. Apoptosis was analyzed by TUNEL staining with the ApopTag Peroxidase In Situ Apoptosis Detection kit (Chemicon International) according to the manufacturer's instructions.
Active caspase 3 IHC. Sections were deparaffinized and rehydrated through graded ethanols. Rehydrated sections were then treated with 3% hydrogen peroxide, followed by antigen retrieval for 10 minutes in boiling 0.1 M citrate buffer (pH 6.0) with 1 mM EDTA. Non-specific antibody binding was blocked using 20% goat serum (Invitrogen) at room temperature for 30 minutes.

SMILES: OCCN1CCN(CC(O)COc2ccc3ccccc3c2)CC1 (stereo not drawn) [PUMAi, 1-[4-(2-hydroxyethyl)-1-piperazinyl]-3-(2-naphthyloxy)-2-propanol dihydrochloride]
- survival at the LD90 of CPT-11 (C57BL/6J mice; CPT-11 215 mg/kg per day x3, PUMAi 10 mg/kg 2 h before each dose, WT mice): 70%
- CPT-11-induced lethality (C57BL/6J mice; CPT-11 180, 215, 250 mg/kg/day x3, PUMAi 10 mg/kg): decreased CPT-11-induced lethality at three different doses
- GI injury by histological analysis (C57BL/6J mice; day 5, CPT-11 215 mg/kg per day x3, compared to WT mice): reduced GI injury
- PUMAi concentration in intestinal mucosa compared to -1.5 hours ([1]; +1 hour of CPT-11 administration): 67%
- PUMAi concentration in intestinal mucosa compared to -1.5 hours ([1]; +6 hours of CPT-11 administration): 30%
- PUMAi concentration in plasma over time ([1]; -1.5, +1, +6 hours, compared with intestinal mucosa): dropped more quickly in the plasma
- crypt apoptosis, PUMAi given after CPT-11 (intestinal crypts; PUMAi 10 mg/kg 1 hour after CPT-11 200 mg/kg, 6 h): still reduced apoptosis effectively
- TUNEL and active caspase-3 staining in crypts (intestinal crypts; PUMAi 10 mg/kg 2 h before CPT-11 200 mg/kg, 6 and 24 h, WT mice): reduced TUNEL and active caspase-3 staining preferentially in the CBCs
- crypt apoptosis in Puma KO mice (intestinal crypts; Puma KO mice, CPT-11 200 mg/kg, 6 h): did not further reduce crypt apoptosis
